# Source: patent US11369618B2, “Compounds, compositions and methods for prevention and/or treatment of cancer” (THE TRUSTEES OF THE UNIVERSITY OF PENNSYLVANIA, priority 2016, dated 2022)
# Key:
# [1] = tested on: pRB, c-myc and GPER in WM46 melanoma cells; experiment: Western blot of WM46 melanoma cells treated with increasing doses of G-1; format: cell-based, human; settings: WM46, increasing concentrations
# [2] = tested on: mouse and human melanoma cell lines (B16F10, WM46, WM51, WM3702); experiment: melanin assay (differentiation) of mouse and human melanoma cell lines in vitro; format: cell-based; settings: estrogen 25 nM E2, G-1 100 nM, vs delivery vehicle
# Source text: FIGS. 4A-4F illustrate the finding that GPER signaling slows proliferation and drives differentiation in mouse and human melanoma. FIG. 4A: 5 day proliferation assay of B16F10, WM46 (BRAF^V600E), WM51 (BRAF^V600E), and WM3702 (NRAS^Q61L) cells treated with estrogen (E2), * denotes significance by a two-tailed T-test, n=3 per group. FIG. 4B: 5 day melanin assay of B16F10, WM46 (BRAF^V600E), WM51 (BRAF^V600E), and WM3702 (NRAS^Q61L) cells treated with E2, * denotes significance by a two-tailed T-test, n=3 per group. FIG. 4C: 5 day proliferation assay of B16F10, WM46 (BRAF^V600E), WM51 (BRAF^V600E) and WM3702 (NRAS^Q61L) cells treated with GPER agonist (G-1), * denotes significance by a two-tailed T-test, n=3 per group. FIG. 4D: 5 day melanin assay of B16F10, WM46 (BRAF^V600E), WM51 (BRAF^V600E), and WM3702 (NRAS^Q61L) cells treated with G-1, * denotes significance by a two-tailed T-test, n=3 per group. FIG. 4E: 3 day proliferation assay of B16F10 cells treated with a dose response of G-1, * denotes significance One-way ANOVA with Tukey's multiple comparison test, n=5 per group. FIG. 4F: Western blot of B16F10 cells treated for 16 hours with a saturating dose response of G-1. […]
# Tumor cell proliferation slowed in both mouse and human melanoma cells following treatment with estrogen or G-1, a specific GPER agonist. […] Cell proliferation and differentiation (melanin production) were measured.
# [3] = tested on: YUMM 1.7 cells (BRafV600E/wt Pten−/−Cdkn2−/−); experiment: YUMM 1.7 melanoma in C57BL/6 mice treated with G-1 with and without αPD-1; format: in vivo, mouse; settings: YUMM 1.7, treatment initiated at day 14
# Source text: FIGS. 14A-14F illustrate the finding that treatment of melanoma bearing mice with G-1 and αPD-1 immunotherapy dramatically extends survival. FIG. 14A: Experimental timeline of B16F10 bearing mice treated with vehicle or G-1, as well as αPD-1 antibody or isotype antibody control (2A3), n=10 per group. FIG. 14B: Tumor volumes of treatment groups at Day 14, * denotes significance One-way ANOVA with Tukey's multiple comparison test. FIG. 14C: Survival curve of mice treated with vehicle or G-1, as well as isotype antibody control (2A3) or αPD-1 antibody. FIG. 14D: Experimental outline of YUMM1.7 bearing mice treated with vehicle or G-1, as well as isotype antibody control (2A3) or αPD-1 antibody. Treatment was started at day 14 after tumors reached 4-5 mm in diameter. n=5 per group. FIG. 14E: Tumor volumes over time of treatment groups. FIG. 14F: Survival curve of mice treated with vehicle or G-1, as well as αPD-1 antibody or isotype antibody control (2A3).
# Although B16F10 melanoma is the most commonly used model for melanoma immunology studies, and experimental results have largely translated to humans, B16F10 lacks the BRaf or NRas oncodriver mutations present in most human melanomas. […]
smiles,measurement,setting,value
"CC(=O)c1ccc2c(c1)[C@@H]1C=CC[C@@H]1[C@H](c1cc3c(cc1Br)OCO3)N2 (relative stereo) [Compound G-1, rel-1-[4-(6-bromo-1,3-benzodioxol-5-yl)-3aR,4S,5,9bS-tetrahydro-3H-cyclopenta[c]quinolin-8-yl]-ethanone]",GPER expression,[1],elevation
same,c-myc levels,[1],reduction
same,pRB levels,[1],reduction
same,differentiation (melanin production),[2],drove differentiation
same,survival,[3],"modest, but significant, survival increases"
